Experimental data published in patent US20120129842A1, “BISTHIAZOLE INHIBITORS OF PRO-MATRIX METALLOPROTEINASE ACTIVATION” (priority 2010, published 2012).
Structures can show the parent of a compound that is named as a salt.

Assays:
[1] = molecular target: T1, proMMP9(20-445;ΔFnII) (SEQ ID NO:6) (Homo sapiens, UniProt P14780, DEL216-390); test: ThermoFluor binding assay with proMMP9(20-445;ΔFnII); conditions: pH 7.0
T1 construct: start methionine (N); made in house; host or cells: E. coli BL21(DE3) RIL
T1 sequence (P14780 with tags, fused parts or gaps DEL216-390): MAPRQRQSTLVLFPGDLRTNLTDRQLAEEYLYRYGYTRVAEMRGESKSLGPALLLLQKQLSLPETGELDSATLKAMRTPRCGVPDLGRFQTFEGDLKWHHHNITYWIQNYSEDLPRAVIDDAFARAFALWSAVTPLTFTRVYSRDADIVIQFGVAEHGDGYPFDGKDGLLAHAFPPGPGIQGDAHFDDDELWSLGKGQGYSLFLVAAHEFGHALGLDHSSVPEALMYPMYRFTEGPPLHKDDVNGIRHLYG
Method: (§1) The ThermoFluor® (TF) assay is a 384-well plate-based binding assay that measures thermal stability of proteins (Biomol Screen 2001, 6, 429-40; Biochemistry 2005, 44, 5258-66). The experiments were carried out using instruments available from Johnson & Johnson Pharmaceutical Research & Development, LLC. TF dye used in all experiments was […] (1,8-ANS) (Invitrogen: A-47).
(§2) Compounds were arranged in a pre-dispensed plate (Greiner Bio-one: 781280), wherein compounds were serially diluted in 100% DMSO across 11 columns within a series. Columns 12 and 24 were used as DMSO reference and contained no compound. For multiple compound concentration-response experiments, the compound aliquots ([…]) were robotically predispensed directly into black 384-well polypropylene PCR microplates (Abgene: TF-0384/k) using a Cartesian Hummingbird liquid handler (DigiLab, Holliston, Mass.). Following compound dispense, protein and dye solutions were added to achieve the final assay volume of 3 μL. The assay solutions were overlayed with 1 μL of silicone oil (Fluka, type DC 200: 85411) to prevent evaporation.
(§3) Assay plates were robotically loaded onto a thermostatically controlled PCR-type thermal block and then heated from 40 to 90° C. at a ramp-rate of 1° C./min for all experiments. Fluorescence was measured by continuous illumination with UV light (Hamamatsu LC6) supplied via fiber optics and filtered through a band-pass filter (380-400 nm; >6 OD cutoff). Fluorescence emission of the entire 384-well plate was detected by measuring light intensity using a CCD camera (Sensys, Roper Scientific) filtered to detect 500±25 nm, resulting in simultaneous and independent readings of all 384 wells. A single image with 20-sec exposure time was collected at each temperature, and the sum of the pixel intensity in a given area of the assay plate was recorded vs temperature and fit to standard equations to yield the Tm (J Biomol Screen 2001, 6, 429-40).
(§4) Thermodynamic parameters necessary for fitting compound binding for each proMMP were estimated by differential scanning calorimetry (DSC) and from ThermoFluor® data. The heat capacity of unfolding for each protein was estimated from the molecular weight and from ThermoFluor® dosing data.
The protein sample preparations included a desalting buffer exchange step via a PD-10 gravity column (GE Healthcare). The desalting buffer exchange was performed prior to diluting the protein to the final assay concentration of 2.8 μM proMMP9(20-445;ΔFnII) (SEQ ID NO:6). The concentration of proMMP9(20-445;ΔFnII) (SEQ ID NO:6) was determined spectrophotometrically based on a calculated extinction coefficient of ε280=39880 M^−cm^−1, a calculated molecular weight of 28.2 kDa, and calculated pI of 5.5. ThermoFluor® reference conditions were define as follows: 80 μg/mL (2.8 μM) proMMP9(20-445;ΔFnII) (SEQ ID NO:6), 50 μM 1,8-ANS, pH 7.0 Buffer (50 mM HEPES pH 7.0, 100 mM NaCl, 0.001% Tween-20, 2.5 mM MgCl2, 300 μM CaCl2). The thermodynamic parameters for proMMP9(20-445;ΔFnII) (SEQ ID NO:6) are as follows: Tm (° C.)=72 (+/−0.1), ΔUH(Tm) (cal mol^−1)=160000(+/−5000), ΔUS(Tm) (cal mol^−1 K^−1)=434, ΔUCp (cal mol^−1 K^−)=2400.

[2] = molecular target: T2, proMMP9(67-444;ΔFnII) (SEQ ID NO:5) (Homo sapiens, UniProt P14780, DEL216-390); test: ThermoFluor binding assay with proMMP9(67-444;ΔFnII); conditions: pH 7.0
T2 construct: start methionine (N); made in house; host or cells: E. coli BL21(DE3) RIL
T2 sequence (P14780 with tags, fused parts or gaps DEL216-390): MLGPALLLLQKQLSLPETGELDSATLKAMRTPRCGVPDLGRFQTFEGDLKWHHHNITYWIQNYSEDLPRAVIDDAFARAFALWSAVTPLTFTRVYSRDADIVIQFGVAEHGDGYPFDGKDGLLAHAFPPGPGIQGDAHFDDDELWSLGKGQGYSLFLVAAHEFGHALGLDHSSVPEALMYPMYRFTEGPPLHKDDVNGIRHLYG
Method: as §1, §2, §3, §4
The protein sample preparations had to include a desalting buffer exchange step via a PD-10 gravity column (GE Healthcare). The desalting buffer exchange was performed prior to diluting the protein to the final assay concentration of 3.5 μM proMMP9(67-444;ΔFnII) (SEQ ID NO:5). The concentration of proMMP9(67-444;ΔFnII) (SEQ ID NO:5) was determined spectrophotometrically based on a calculated extinction coefficient of ε280=33900 M^−1cm^−1, a calculated molecular weight of 22.6 kDa, and calculated pI of 5.20. ThermoFluor® reference conditions were defined as follows: 80 μg/mL (3.5 μM) proMMP9(67-444;ΔFnII) (SEQ ID NO:5), 50 μM 1,8-ANS, pH 7.0 Buffer (50 mM HEPES pH 7.0, 100 mM NaCl, 0.001% Tween-20, 2.5 mM MgCl2, 300 μM CaCl2). The thermodynamic parameters for proMMP9(67-444;ΔFnII) (SEQ ID NO:5) are as follows: Tm (° C.)=63 (+/−0.1), ΔUH(Tm) (cal mol^−1)=105000(+/−5000), ΔUS(Tm) (cal mol^−1 K^−1)=[…], ΔUCp (cal mol^−1 K^−1)=2000.

[3] = molecular target: T3, full-length proMMP9(1-707) (SEQ ID NO:1) (Homo sapiens, UniProt P14780, R574P); test: proMMP9/MMP3 P126 Activation Assay; assay type: biochemical; conditions: 20 nM proMMP9, 20 nM MMP3, 80 min 37° C.
T3 construct: made in house; host or cells: HEK293 (proMMP9, secreted); E. coli (MMP3)
Method: The reaction volume was 50 μL. […] Reactivity of residual MMP3 towards P-126 substrate was minimal under these conditions.

T3 sequence (P14780 20-707 R574P): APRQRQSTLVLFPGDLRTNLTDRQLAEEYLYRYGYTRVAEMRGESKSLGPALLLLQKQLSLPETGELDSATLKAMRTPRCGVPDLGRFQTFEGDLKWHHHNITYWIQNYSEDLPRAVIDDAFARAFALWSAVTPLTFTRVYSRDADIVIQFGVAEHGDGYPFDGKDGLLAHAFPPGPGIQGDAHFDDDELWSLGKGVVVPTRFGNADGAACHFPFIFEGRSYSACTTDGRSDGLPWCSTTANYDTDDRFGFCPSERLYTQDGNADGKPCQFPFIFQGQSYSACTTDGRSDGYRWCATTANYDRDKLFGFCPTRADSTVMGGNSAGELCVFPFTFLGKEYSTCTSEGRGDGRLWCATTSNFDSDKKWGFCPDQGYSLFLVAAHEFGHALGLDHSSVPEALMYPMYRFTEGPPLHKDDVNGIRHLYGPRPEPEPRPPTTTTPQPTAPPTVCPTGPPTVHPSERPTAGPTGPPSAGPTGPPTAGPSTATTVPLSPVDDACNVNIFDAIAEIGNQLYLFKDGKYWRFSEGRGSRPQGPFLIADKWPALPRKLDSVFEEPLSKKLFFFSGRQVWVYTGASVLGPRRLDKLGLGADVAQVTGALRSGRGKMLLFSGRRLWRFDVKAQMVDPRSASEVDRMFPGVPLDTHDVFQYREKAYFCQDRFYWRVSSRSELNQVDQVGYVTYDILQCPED

Structure (SMILES)	Kd [1] [µM]	Kd [2] [µM]	IC50 [3] [µM]
COc1cc(C(N)=O)ccc1Nc1nc(-c2sc(C)nc2C)cs1 [Example 35, 4-(2′,4′-Dimethyl-[4,5′]bithiazolyl-2-ylamino)-3-methoxy-benzamide]	14	3.9	–
CCC(C)Oc1ccc(C(N)=O)cc1Nc1nc(-c2sc(C)nc2C)cs1 (racemic) [Example 14, (±)-4-sec-Butoxy-3-(2′,4′-dimethyl-[4,5′]bithiazolyl-2-ylamino)-benzamide.TFA]	0.57	7	4.7
COc1ccc([N+](=O)[O-])cc1Nc1nc(-c2sc(N)nc2C)cs1 [Example 67, N^2-(2-Methoxy-5-nitro-phenyl)-4′-methyl-[4,5′]bithiazolyl-2,2′-diamine.HBr]	0.56	0.087	0.45
CC(=O)Nc1nc(C)c(-c2csc(Nc3cc(C#N)ccc3OC(C)C)n2)s1 [Example 73, N-[2-(5-Cyano-2-isopropoxy-phenylamino)-4′-methyl-[4,5′]bithiazolyl-2′-yl]-acetamide.HBr]	4.3	0.33	0.52
Cc1nc(C)c(-c2csc(Nc3cc(C(N)=O)ccc3OC(C)(C)C)n2)s1 [Example 12, 4-tert-Butoxy-3-(2′,4′-dimethyl-[4,5′]bithiazolyl-2-ylamino)-benzamide]	1.9	15	2.5
COc1ccc(S(N)(=O)=O)cc1Nc1nc(-c2sc(N)nc2C)cs1 [Example 52, 3-(2′-Amino-4′-methyl-[4,5′]bithiazolyl-2-ylamino)-4-methoxy-benzenesulfonamide.HBr]	0.87	1.6	1.2
CCN(CC)S(=O)(=O)c1ccc(OC)c(Nc2nc(-c3sc(NC(C)=O)nc3C)cs2)c1 [Example 20, N-[2-(5-Diethylsulfamoyl-2-methoxy-phenylamino)-4′-methyl-[4,5]bithiazolyl-2′-yl]-acetamide]	21	6.7	–
Cc1nc(C)c(-c2csc(Nc3cccc4cccnc34)n2)s1 [Example 42, (2′,4′-Dimethyl-[4,5′]bithiazolyl-2-yl)-quinolin-8-yl-amine.TFA]	> 95	52	9.1
COc1ccc(-c2cnn(C)c2)cc1Nc1nc(-c2sc(C)nc2C)cs1 [Example 136, (2′,4′-Dimethyl-[4,5′]bithiazolyl-2-yl)-[2-methoxy-5-(1-methyl-1H-pyrazol-4-yl)-phenyl]-amine]	38	8.2	~6
COc1ccc(C(=O)NCc2ccccc2)cc1Nc1nc(-c2sc(N)nc2C)cs1 [Example 56, 3-(2′-Amino-4′-methyl-[4,5′]bithiazolyl-2-ylamino)-N-benzyl-4-methoxy-benzamide.TFA]	1.3	2.3	12
COc1ccncc1Nc1nc(-c2sc(C)nc2C)cs1 [Example 151, N-(4-Methoxypyridin-3-yl)-2′,4′-dimethyl-[4,5′-bithiazol]-2-amine]	3.7	0.57	0.41
CC(=O)Nc1nc(C)c(-c2csc(Nc3cccc4c3OC(F)(F)O4)n2)s1 [Example 10, N-[2-(2,2-Difluoro-benzo[1,3]dioxol-4-ylamino)-4′-methyl-[4,5′]bithiazolyl-2′-yl]-acetamide]	–	–	5.6
COc1ccc(-c2c(C)noc2C)cc1Nc1nc(-c2sc(C)nc2C)cs1 [Example 135, (2′,4′-Dimethyl-[4,5′]bithiazolyl-2-yl)-[5-(3,5-dimethyl-isoxazol-4-yl)-2-methoxy-phenyl]-amine]	31	40	~5
Cc1nc(Nc2ccncc2)sc1-c1csc(Nc2cc(C(N)=O)ccc2OC(C)C)n1 [Example 92, 4-Isopropoxy-3-[4′-methyl-2′-(pyridin-4-ylamino)-[4,5′]bithiazolyl-2-ylamino]-benzamide.TFA]	0.045	0.22	0.34
COc1cc(Nc2nc(-c3sc(C)nc3C)cs2)c2ncccc2c1 [Example 41, (2′,4′-Dimethyl-[4,5′]bithiazolyl-2-yl)-(6-methoxy-quinolin-8-yl)-amine.TFA]	84	61	~13
Cc1nc(C)c(-c2csc(Nc3cc(C(N)=O)ccc3CC(C)C)n2)s1 [Example 38, 3-(2′,4′-Dimethyl-[4,5′]bithiazolyl-2-ylamino)-4-isobutyl-benzamide.TFA]	0.55	–	0.8
Cc1nc(C)c(-c2csc(Nc3cc(C#N)ccc3OC(C)C)n2)s1 [Example 72, 3-(2′,4′-Dimethyl-[4,5′]bithiazolyl-2-ylamino)-4-isopropoxy-benzonitrile.HBr]	8.6	1.2	1
COc1ccc(C(F)(F)F)cc1Nc1nc(-c2sc(N)nc2C)cs1 [Example 22, N^2-(2-Methoxy-5-trifluoromethyl-phenyl)-4′-methyl-[4,5′]bithiazolyl-2,2′-diamine.HBr]	6.4	1.6	–
CCOc1ccncc1Nc1nc(-c2sc(C3CCN(C)CC3)nc2C)cs1 [Example 158, N-(4-Ethoxypyridin-3-yl)-4′-methyl-2′-(1-methylpiperidin-4-yl)-[4,5′-bithiazol]-2-amine.TFA]	–	–	0.29
CC(=O)Nc1nc(C)c(-c2csc(Nc3cccc4cc(C)oc34)n2)s1 [Example 9, N-[4′-Methyl-2-(2-methyl-benzofuran-7-ylamino)-[4,5′]bithiazolyl-2′-yl]-acetamide]	–	–	3.6
Cc1nc(C2CCN(C)CC2)sc1-c1csc(Nc2cc(S(N)(=O)=O)ccc2OC(C)C)n1 [Example 156, 4-Isopropoxy-3-((4′-methyl-2′-(1-methylpiperidin-4-yl)-[4,5′-bithiazol]-2-yl)amino)benzenesulfonamide.TFA]	–	–	0.067
